{"source": "patent US20090036474A1", "about": "“Quinazoline derivatives for use against cancer” (priority 2004, published 2009)", "test_system": "MG63 osteosarcoma cells", "assay": "In vitro MG63 osteosarcoma proliferation assay, Test (c)", "format": "cell-based", "conditions": "Homo sapiens, MG-63, BrdU, 72 hours, read-out: IC50 versus MG63 osteosarcoma proliferation", "experimental": "This assay determined the ability of a test compound to inhibit the proliferation of MG63 osteosarcoma cells (ATCC CCL 1427):\nMG63 cells were seeded at 1.5×10^3 cells per well into 96-well clear tissue culture-treated assay plates (Corning Life Sciences; Catalogue No. 3595) to which had been added 60 μl per well of test medium comprising DMEM without phenol red, 1% charcoal-stripped FCS and 2 mM glutamine and the cells were incubated overnight at 37° C. with 7.5% CO2.\nTest compounds were solubilised in DMSO to provide a 10 mM stock solution. Aliquots of the stock solution were diluted with the test medium described above and 20 μl aliquots of each dilution were added to appropriate wells. Serial dilutions were made to give a range of test concentrations. […]\nBrdU labelling reagent (Roche Diagnostics Ltd., Lewes, East Sussex, UK; Catalogue No. 647 229) was diluted by a factor of 1:100 in DMEM medium containing 1% charcoal stripped FCS and aliquots (10 μl) were added to each well to give a final concentration of 10 μM. […] Aqueous sulphuric acid (1M; 50 μl) was added to the appropriate wells to stop any further reaction and the absorbance of the wells was measured at 450 nm. The extent of inhibition of cellular proliferation at a range of concentrations of each test compound was determined and an anti-proliferative IC50 value was derived."}
{"smiles": "COc1cc2ncnc(Oc3cnn(CC(=O)Nc4cccc5c4OCO5)c3)c2cc1OC", "note": "[Example 2, N-(2,3-methylenedioxyphenyl)-2-[4-(6,7-dimethoxyquinazolin-4-yloxy)pyrazol-1-yl]acetamide]", "values": [{"measurement": "IC50", "value": "~40", "unit": "nM"}]}
